According to ChEMBL document CHEMBL4765485, “Convenient Retinoid X Receptor Binding Assay Based on Fluorescence Change of the Antagonist NEt-C343” (J Med Chem, 2021):
Active and inactive are the calls of the source. No cut-off for these calls is given here.

What was measured:
[1] = target: T1, Retinoic acid receptor RXR-alpha (Homo sapiens, UniProt P19793); test: Antagonist activity at human RXRalpha expressed in COS-7 cells assessed as suppression of NEt-TMN-induced receptor transactivation by luciferase reporter gene assay; assay type: cell-based; conditions: read-out: pA2 (converted)
T1 sequence (P19793 whole entry): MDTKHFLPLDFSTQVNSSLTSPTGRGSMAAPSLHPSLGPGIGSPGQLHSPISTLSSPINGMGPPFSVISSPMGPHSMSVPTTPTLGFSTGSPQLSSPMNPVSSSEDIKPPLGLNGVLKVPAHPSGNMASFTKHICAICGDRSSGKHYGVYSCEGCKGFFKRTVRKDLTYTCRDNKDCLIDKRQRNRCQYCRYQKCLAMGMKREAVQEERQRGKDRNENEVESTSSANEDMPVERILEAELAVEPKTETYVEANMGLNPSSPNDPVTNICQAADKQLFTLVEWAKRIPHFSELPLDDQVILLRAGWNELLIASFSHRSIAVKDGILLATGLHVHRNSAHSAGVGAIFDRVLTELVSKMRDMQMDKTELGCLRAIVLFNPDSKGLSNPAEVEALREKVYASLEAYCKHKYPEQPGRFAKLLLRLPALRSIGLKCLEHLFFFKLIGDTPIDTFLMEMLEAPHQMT

[2] = target: T1, Retinoic acid receptor RXR-alpha; test: Displacement of [3H]9cis-RA from human RXRalpha-LBD by competitive binding assay
[3] = target: T2, Retinoic acid receptor RXR-alpha (Homo sapiens) (UniProt P19793); test: Displacement of 6-(Ethyl-{5-isobutoxy-4-isopropyl-2-[(10-oxo-2,3,5,6-tetrahydro-1H,4H,10H-11-oxa-3a-aza-benzo[de]anthracene-9-carbonyl)-amino]-phenyl}-amino)-nicotinic acid from human RXRalpha-LBD by fluorescence binding assay
T2 sequence (whole entry): T1 sequence (P19793 whole entry)

| Kb [1] [nM] | Ki [2] [nM] | Structure (SMILES) | Activity [3] |
| --- | --- | --- | --- |
| 47.9 | 425 | CCN(c1ccc(C(=O)O)cn1)c1cc(OCC(C)C)c(C(C)C)cc1NC(=O)c1ccccc1 |  |
|  |  | C=CCc1ccc(O)c(-c2ccc(O)c(CC=C)c2)c1 | Active |
|  |  | CC/C=C\C/C=C\C/C=C\C/C=C\C/C=C\CCCC(=O)O | Active |
|  |  | CCCCC/C=C\C/C=C\C/C=C\C/C=C\CCCC(=O)O | Active |
|  |  | CC/C=C\C/C=C\C/C=C\C/C=C\C/C=C\C/C=C\CCC(=O)O | Active |
